Target: T1, human recombinant P2X7 receptors (Homo sapiens, UniProt Q99572)
T1 construct: expressed in transfected cells; host or cells: HEK293
T1 sequence (Q99572 1-595): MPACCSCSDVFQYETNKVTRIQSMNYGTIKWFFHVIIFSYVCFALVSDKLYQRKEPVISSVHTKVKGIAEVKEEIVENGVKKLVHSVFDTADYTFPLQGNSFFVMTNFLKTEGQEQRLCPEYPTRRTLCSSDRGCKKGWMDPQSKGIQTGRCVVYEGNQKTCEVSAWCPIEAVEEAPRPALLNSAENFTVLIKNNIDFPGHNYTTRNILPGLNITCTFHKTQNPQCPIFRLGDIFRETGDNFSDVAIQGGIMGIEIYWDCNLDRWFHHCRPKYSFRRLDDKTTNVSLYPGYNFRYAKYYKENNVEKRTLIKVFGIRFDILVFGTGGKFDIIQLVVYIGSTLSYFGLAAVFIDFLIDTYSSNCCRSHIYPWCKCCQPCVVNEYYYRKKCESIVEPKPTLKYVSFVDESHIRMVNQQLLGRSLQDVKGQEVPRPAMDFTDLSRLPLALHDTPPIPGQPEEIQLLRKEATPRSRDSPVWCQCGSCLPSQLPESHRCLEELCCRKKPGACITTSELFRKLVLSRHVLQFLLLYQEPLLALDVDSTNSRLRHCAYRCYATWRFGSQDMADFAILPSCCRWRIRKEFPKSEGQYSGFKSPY
Assay: Ethidium Accumulation Assay
Assay type: cell-based
Conditions: HEK293 cells expressing human recombinant P2X7; 1 mM ATP, 100 μM ethidium; 30 min preincubation at room temperature; read-out: Antagonist pIC50 for blocking ATP responses (cellular accumulation of ethidium) (converted)
Method: Studies were performed using NaCl assay buffer of the following composition (in mM): 140 mM NaCl, HEPES 10, N-methyl-D-glucamine 5, KCl 5.6, D-glucose 10, CaCl2 0.5 (pH 7.4). HEK293 cells, expressing human recombinant P2X7 receptors, were grown in poly-L-lysine pretreated 96 well plates for 18-24 h. (The cloning of the human P2X7 receptor is described in U.S. Pat. No. 6,133,434). The cells were washed twice with 350 μl of assay buffer before addition of 50 μl of antagonist. The cells were then incubated at room temperature (19-21° C.) for 30 min before addition of ATP and ethidium (100 μM final assay concentration). The ATP concentration was chosen to be close to the EC80 for the receptor type and was 1 mM for studies on the human P2X7 receptor. Incubations were continued for 8 or 16 min and were terminated by addition of 25 μl of 1.3M sucrose containing 5 mM of the P2X7 receptor antagonist reactive black 5 (Aldrich). Cellular accumulation of ethidium was determined by measuring fluorescence (excitation wavelength of 530 nm and emission wavelength of 620 nm) from below the plate with a Canberra Packard Fluorocount (Pangbourne, UK). Antagonist pIC50 values for blocking ATP responses were determined using iterative curve fitting techniques.

SMILES | IC50 [nM]
CC1=CC(=O)N(C2CC2)C1C(=O)NCc1ccc(Cl)cc1Cl (stereo not drawn) [Example 1, 1-cyclopropyl-N-[(2,4-dichlorophenyl)methyl]-3-methyl-5-oxo-2,5-dihydro-1H-pyrrole-2-carboxamide] | ≤ 631
CN1C(=O)c2ccccc2C1C(=O)NCc1cccc(C(F)(F)F)c1Cl (stereo not drawn) [Example 7, N-{[2-chloro-3-(trifluoromethyl)phenyl]methyl}-2-methyl-3-oxo-2,3-dihydro-1H-isoindole-1-carboxamide] | ≤ 126
CCN1C(=O)c2ccccc2C1C(=O)NCc1cccc(C(F)(F)F)c1Cl (stereo not drawn) [Example 4, N-{[2-chloro-3-(trifluoromethyl)phenyl]methyl}-2-ethyl-3-oxo-2,3-dihydro-1H-isoindole-1-carboxamide] | ≤ 126
CN1C(=O)c2ccccc2C1C(=O)NCc1ccc(Cl)cc1Cl (stereo not drawn) [Example 5, N-[(2,4-dichlorophenyl)methyl]-2-methyl-3-oxo-2,3-dihydro-1H-isoindole-1-carboxamide] | ≤ 126
CN1C(=O)c2ccccc2C1C(=O)NCc1ccc(F)cc1Cl (stereo not drawn) [Example 6, N-[(2-chloro-4-fluorophenyl)methyl]-2-methyl-3-oxo-2,3-dihydro-1H-isoindole-1-carboxamide] | ≤ 631
CCN1C(=O)c2ccccc2C1C(=O)NCc1ccc(Cl)cc1Cl (stereo not drawn) [Example 2, N-[(2,4-dichlorophenyl)methyl]-2-ethyl-3-oxo-2,3-dihydro-1H-isoindole-1-carboxamide] | ≤ 631

Reference: patent US7935832B2, “Pyrrole and isoindole carboxamide derivatives as P2X7 modulators” (Glaxo Group Limited, priority 2007, dated 2011)
